Structures can show the parent of a compound that is named as a salt.

Assay [1] addresses PI3Kδ (p110δ/p85α) (Homo sapiens (Human), UniProt O00329). Kind of assay: PI3Kδ Scintillation Proximity Assay. The assay is classed as biochemical. The note with it: 20 μM PIP2, 20 μM ATP, 4 nM PI3Kδ, 210 min; read-out: PI3Kδ SPA IC50. From the text:
[γ-^33P]ATP (10 mCi/mL) was purchased from Perkin-Elmer (Waltham, Mass.). Lipid kinase substrate, D-myo-Phosphatidylinositol 4,5-bisphosphate (PtdIns(4,5)P2)D(+)-sn-1,2-di-O-octanoylglyceryl, 3-O-phospho linked (PIP2), CAS 204858-53-7, was purchased from Echelon Biosciences (Salt Lake City, Utah). PI3Kδ (p110δ/p85α) was purchased from Millipore (Bedford, Mass.). ATP, MgCl2, DTT, EDTA, MOPS and CHAPS were purchased from Sigma-Aldrich (St. Louis, Mo.). Wheat Germ Agglutinin (WGA) YSi SPA Scintillation Beads was purchased from GE healthcare life sciences (Piscataway, N.J.).
The kinase reaction was conducted in polystyrene 384-well matrix white plate from Thermo Fisher Scientific in a final volume of 25 μL. Inhibitors were first diluted serially in DMSO and added to the plate wells before the addition of other reaction components. The final concentration of DMSO in the assay was 0.5%. The PI3K assays were carried out at room temperature in 20 mM MOPS, pH 6.7, 10 mM MgCl2, 5 mM DTT and CHAPS 0.03%. Reactions were initiated by the addition of ATP, the final reaction mixture consisted of 20 μM PIP2, 20 μM ATP, 0.2 μCi [γ-^33P]ATP, 4 nM PI3Kδ. Reactions were incubated for 210 min and terminated by the addition of 40 μL SPA beads suspended in quench buffer: 150 mM potassium phosphate pH 8.0, 20% glycerol. 25 mM EDTA, 400 μM ATP. The final concentration of SPA beads was 1.0 mg/mL. After the plate sealing, plates were shaken overnight at room temperature and centrifuged at 1800 rpm for 10 minutes, the radioactivity of the product was determined by scintillation counting on Topcount (Perkin-Elmer). IC50 determination was performed by fitting the curve of percent control activity versus the log of the inhibitor concentration using the GraphPad Prism 3.0 software.

For assay [2], the system named is Pfeiffer cell line (diffuse large B cell lymphoma). Kind of assay: Pfeiffer Cell Proliferation Assay. The note with it: Homo sapiens, [3H]-thymidine incorporation after 3-4 days. In kind it is cell-based. How it is done:
Pfeiffer cell line (diffuse large B cell lymphoma) was purchased from ATCC (Manassas, Va.) and maintained in the culture medium recommended (RPMI and 10% FBS). To measure the anti-proliferation activity of the compounds, the Pfeiffer cells were plated with the culture medium (2×10^3 cells/well/[…]) into 96-well ultra-low binding plates (Corning, Corning, N.Y.), in the presence or absence of a concentration range of test compounds. After 3-4 days, [^3H]-thymidine (1 μCi/well) (PerkinElmer, Boston, Mass.) in PBS was then added to the cell culture for an additional 12 hours before the incorporated radioactivity was separated by filtration with water through GF/B filters (Packard Bioscience, Meridenj, Conn.) and measured by liquid scintillation counting with a TopCount (Packard Bioscience). Pfeiffer cell proliferation data for certain compounds described herein is provided below in Table 8.
(In general: Uptake of a labelled nucleoside into DNA is a usual measure of proliferation.)

Sequence of PI3Kδ (p110δ/p85α) (O00329 whole entry, species assumed): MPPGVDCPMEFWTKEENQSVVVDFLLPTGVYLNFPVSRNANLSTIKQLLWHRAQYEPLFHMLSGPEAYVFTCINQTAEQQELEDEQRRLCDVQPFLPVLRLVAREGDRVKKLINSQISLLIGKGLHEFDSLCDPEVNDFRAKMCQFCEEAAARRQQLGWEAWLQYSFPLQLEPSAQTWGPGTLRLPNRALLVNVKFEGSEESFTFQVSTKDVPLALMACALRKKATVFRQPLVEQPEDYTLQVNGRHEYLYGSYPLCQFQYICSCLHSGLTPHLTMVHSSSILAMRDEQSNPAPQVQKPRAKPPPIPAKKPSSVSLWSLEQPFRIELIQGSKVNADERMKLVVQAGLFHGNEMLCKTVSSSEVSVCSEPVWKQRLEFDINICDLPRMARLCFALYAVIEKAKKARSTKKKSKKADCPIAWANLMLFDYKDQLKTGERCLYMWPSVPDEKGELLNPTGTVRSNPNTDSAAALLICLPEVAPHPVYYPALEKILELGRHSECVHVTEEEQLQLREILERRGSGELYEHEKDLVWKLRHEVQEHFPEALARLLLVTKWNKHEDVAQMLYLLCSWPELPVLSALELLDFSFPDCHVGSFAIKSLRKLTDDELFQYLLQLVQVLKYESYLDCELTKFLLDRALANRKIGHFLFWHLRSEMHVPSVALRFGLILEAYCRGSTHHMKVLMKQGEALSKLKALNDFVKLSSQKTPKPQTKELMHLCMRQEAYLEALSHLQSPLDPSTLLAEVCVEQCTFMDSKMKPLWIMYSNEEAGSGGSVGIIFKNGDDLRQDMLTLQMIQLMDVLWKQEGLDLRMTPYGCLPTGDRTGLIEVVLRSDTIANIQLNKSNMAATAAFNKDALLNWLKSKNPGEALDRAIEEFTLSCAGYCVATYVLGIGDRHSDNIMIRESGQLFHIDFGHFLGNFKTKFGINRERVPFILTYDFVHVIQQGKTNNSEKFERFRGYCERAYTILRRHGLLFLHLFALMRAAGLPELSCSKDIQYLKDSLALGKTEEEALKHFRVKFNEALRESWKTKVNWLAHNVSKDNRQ
Sequence of PI3Kδ (p110δ/p85α) (P27986 whole entry partner, species assumed): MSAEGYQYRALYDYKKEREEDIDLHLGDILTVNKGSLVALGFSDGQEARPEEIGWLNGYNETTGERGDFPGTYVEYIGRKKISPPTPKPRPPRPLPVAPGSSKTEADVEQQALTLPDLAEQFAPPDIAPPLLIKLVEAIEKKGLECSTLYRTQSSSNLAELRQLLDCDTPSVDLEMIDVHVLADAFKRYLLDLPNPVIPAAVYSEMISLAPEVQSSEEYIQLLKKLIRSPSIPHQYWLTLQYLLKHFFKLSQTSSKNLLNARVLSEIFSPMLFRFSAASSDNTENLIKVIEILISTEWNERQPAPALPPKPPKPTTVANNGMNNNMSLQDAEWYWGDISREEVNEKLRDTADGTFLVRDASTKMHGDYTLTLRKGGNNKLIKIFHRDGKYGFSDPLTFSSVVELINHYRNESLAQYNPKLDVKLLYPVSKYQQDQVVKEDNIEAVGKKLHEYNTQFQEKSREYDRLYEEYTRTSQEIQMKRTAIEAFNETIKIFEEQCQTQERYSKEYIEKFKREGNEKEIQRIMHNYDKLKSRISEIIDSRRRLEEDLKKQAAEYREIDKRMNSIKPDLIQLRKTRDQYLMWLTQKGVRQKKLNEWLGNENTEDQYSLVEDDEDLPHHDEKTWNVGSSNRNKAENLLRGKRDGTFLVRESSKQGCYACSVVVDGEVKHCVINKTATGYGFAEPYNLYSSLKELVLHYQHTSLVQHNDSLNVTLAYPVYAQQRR

For the molecule `COc1c(C(C)Nc2ncnc(N)c2C#N)cc(Cl)c(C)c1-c1ccc(S(C)(=O)=O)cc1` (stereo not shown) [Example 4, 4-amino-6-({1-[5-chloro-2-methoxy-6-methyl-4′-(methyl-sulfonyl)biphenyl-3-yl]ethyl}amino) pyrimidine-5-carbonitrile], the IC50 in assay [1] and in assay [2] was under 20 nM throughout.

`COc1c(C(C)Nc2ncnc(N)c2C#N)cc(Cl)c(F)c1-c1cncc(F)c1` (stereo not shown) [Example 7, 4-amino-6-({1-[5-chloro-4-fluoro-3-(5-fluoropyridin-3-yl)-2-methoxyphenyl]ethyl}-amino) pyrimidine-5-carbonitrile]: the half-inhibitory concentration (IC50) in assay [1] and in assay [2] was under 20 nM in each case.

`COc1c(C(C)Nc2ncnc(N)c2C#N)cc(Cl)c(C)c1-c1cnc(N)nc1` (stereo not shown) [Example 3, 4-amino-6-({1-[3-(2-aminopyrimidin-5-yl)-5-chloro-2-methoxy-4-methyl-phenyl]ethyl}-amino)pyrimidine-5-carbonitrile]: the half-maximal inhibitory concentration (IC50) in assay [1] and in assay [2] was under 20 nM in each case.

As to `COc1c(C(C)Nc2ncnc(N)c2C#N)cc(Cl)c(Cl)c1-c1cncc(F)c1` (stereo not shown) [Example 12, 4-Amino-6-({1-[4,5-dichloro-3-(5-fluoropyridin-3-yl)-2-methoxyphenyl]ethyl}amino) pyrimidine-5-carbonitrile], the 50% inhibitory concentration (IC50) in assay [1] and in assay [2] was under 20 nM each time.

Regarding `COc1c(C(C)Nc2ncnc(N)c2C#N)cc(Cl)c(F)c1-c1cncc(S(C)(=O)=O)c1` (stereo not shown) [Example 8, 4-amino-6-[(1-{5-chloro-4-fluoro-2-methoxy-3-[5-(methyl-sulfonyl)pyridin-3-yl]phenyl}ethyl)amino]-pyrimidine-5-carbonitrile bis(trifluoroacetate)], the IC50 in assay [1] and in assay [2] was under 20 nM each time.

Turning to `COc1c(C(C)Nc2ncnc(N)c2C#N)cc(Cl)c(F)c1-c1cnc(N)nc1` (stereo not shown) [Example 10, 4-amino-6-({1-[3-(2-aminopyrimidin-5-yl)-5-chloro-4-fluoro-2-methoxyphenyl]-ethyl}amino)pyrimidine-5-carbonitrile], the IC50 in assay [1] and in assay [2] was under 20 nM in each case.

`COc1c(C(C)Nc2ncnc(N)c2C#N)cc(Cl)c(C)c1-c1cncc(S(C)(=O)=O)c1` (stereo not shown) [Example 1, 4-Amino-6-[(1-{5-chloro-2-methoxy-4-methyl-3-[5-(methylsulfonyl)pyridin-3-yl]phenyl}ethyl)amino]pyrimidine-5-carbonitrile trifluoroacetic acid salt] displayed an IC50 in assay [2] of under 20 nM.

`COc1c(C(C)Nc2ncnc(N)c2C#N)cc(Cl)c(F)c1-c1cncc(C#N)c1` (stereo not shown) [Example 6, 4-Amino-6-({1-[5-chloro-3-(5-cyanopyridin-3-yl)-4-fluoro-2-methoxyphenyl]ethyl}-amino)pyrimidine-5-carbonitrile]: the half-maximal inhibitory concentration (IC50) in assay [1] and in assay [2] was under 20 nM throughout.

For `COc1c(C(C)Nc2ncnc(N)c2C#N)cc(Cl)c(Cl)c1-c1cncc(S(C)(=O)=O)c1` (stereo not shown) [Example 11, 4-Amino-6-[(1-{4,5-dichloro-2-methoxy-3-[5-(methylsulfonyl)pyridin-3-yl]phenyl}ethyl)amino]pyrimidine-5-carbonitrile], the IC50 in assay [1] and in assay [2] was under 20 nM in each case.

`COc1c(C(C)Nc2ncnc(N)c2C#N)cc(Cl)c(C)c1-c1cncc(C#N)c1` (stereo not shown) [Example 2, 4-amino-6-({1-[5-chloro-3-(5-cyano-pyridin-3-yl)-2-methoxy-4-methylphenyl]ethyl}amino)-pyrimidine-5-carbonitrile]: the IC50 in assay [1] and in assay [2] was under 20 nM each time.

As to `COc1c(C(C)Nc2ncnc(N)c2C#N)cc(Cl)c(F)c1-c1ccc(S(C)(=O)=O)cc1` (stereo not shown) [Example 9, 4-amino-6-({1-[5-chloro-6-fluoro-2-methoxy-4′-(methylsulfonyl)biphenyl-3-yl]ethyl}amino) pyrimidine-5-carbonitrile], in assay [1], the half-maximal inhibitory concentration (IC50) is under 20 nM.

Turning to `COc1c(C(C)Nc2ncnc(N)c2C#N)cc(Cl)c(Cl)c1-c1ccc(S(C)(=O)=O)cc1` (stereo not shown) [Example 13, 4-Amino-6-({1-[5,6-dichloro-2-methoxy-4′-(methylsulfonyl)biphenyl-3-yl]ethyl}amino) pyrimidine-5-carbonitrile], the IC50 in assay [1] is under 20 nM.

As for `COc1c(C(C)Nc2ncnc(N)c2C#N)cc(Cl)c(C)c1-c1cncc(C(=O)N2CCOCC2)c1` (stereo not shown) [Example 5, 4-amino-6-[(1-{5-chloro-2-methoxy-4-methyl-3-[5-(morpholin-4-ylcarbonyl)pyridin-3-yl]phenyl}ethyl)-amino]pyrimidine-5-carbonitrile], the IC50 in assay [1] and in assay [2] was under 20 nM throughout.

In the case of `COc1c(C(C)Nc2ncnc(N)c2C#N)cc(Cl)c(Cl)c1-c1cnc(N)nc1` (stereo not shown) [Example 14, 4-Amino-6-({1-[3-(2-aminopyrimidin-5-yl)-4,5-dichloro-2-methoxy-phenyl]ethyl}amino)pyrimidine-5-carbonitrile], the half-inhibitory concentration (IC50) in assay [1] and in assay [2] was under 20 nM throughout.

As usually defined, the IC50 is the concentration that inhibits the measured activity by half.
